Experimental data taken from patent US20150283120A1, “ANTIBIOTIC METHODS AND COMPOSITIONS FOR BACTERIA INFECTIONS” (THE UNIVERSITY OF CHICAGO, priority 2012, published 2015).
“And” between values parts separate entries of the source, which are not always exact repeats. Equal values may be shown once. “Also recorded” adds a separate entry of the source. Read-outs that look alike come from different tables or passages of the source.

Assays:
[1] = tested on: vraSR operon (vra promoter, Pvra::lux); assay: Primary screen: Pvra-lux luminescence (vraSR induction); assay type: cell-based, Staphylococcus aureus; details: compound 10 μM, oxacillin 2 μg/mL; luminescence at 2 hours; library screened twice
diverse MRSA strains = assay: MIC of oxacillin with a single concentration of compound in multiple MRSA strains; assay type: cell-based, Staphylococcus aureus
Experimental: Testing potentiation of oxacillin by compounds in multiple MRSA strains: In order to be considered a synergistic agent in therapy of MRSA infection, it must be effective as a potentiator in diverse MRSA strains. To determine whether the oxacillin potentiators were effective against MRSA strains besides USA300, a single effective concentration of three compounds that were not known as antibiotics—gossypol, pyrvinium and clomiphene—were tested against multiple MRSA genetic backgrounds. Each compound was tested at a single optimal concentration, determined in the checkerboard assays, in combination with various concentrations of oxacillin. The strains included in this panel were from diverse genetic backgrounds as determined by multilocus sequence type (MLST) and contained a variety of SCCmec types. […] The MIC80 was […] for clomiphene, gossypol, and pyrvinium, respectively.

[2] = tested on: test strain (923 pPvra-lux); assay: Primary screen: growth (OD) of test strain with compound, with and without oxacillin; assay type: cell-based, Staphylococcus aureus; details: compound 10 μM, with and without oxacillin 2 μg/mL; OD at 24 h; library screened twice
MRSA strain 8004-01 = assay: Checkerboard oxacillin + compound, strain 8004-01; design: MIC OX / MIC OX (+) / MIC cmpd alone: unit not given beside the values; details: strain 8004-1 (ST239)
strain 11095 = assay: Checkerboard oxacillin + compound, strain 11095; design: MIC OX / MIC OX (+) / MIC cmpd alone: unit not given beside the values; details: for FICi: oxacillin + compound
VRS1 = assay: microbe, parasite or virus in culture; assay type: cell-based, Staphylococcus aureus; details: VRS1
Description: (§1) As shown in the analysis of the checkerboard assays (Table 6), gossypol fully potentiated vancomycin (FIC i<0.5) in hVISA, VISA, VRS2 and VRS1. […] Clomiphene partially potentiated vancomycin in hVISA, VISA, and VRS1 and it fully potentiated in strain VRS2.

hVISA 2275 = assay: microbe, parasite or virus in culture; assay type: cell-based, Staphylococcus aureus; details: hVISA 2275
Description: as §1

VRS2 = assay: microbe, parasite or virus in culture; assay type: cell-based, Staphylococcus aureus; details: VRS2
Description: as §1

VISA 2283 = assay: microbe, parasite or virus in culture; assay type: cell-based, Staphylococcus aureus; details: VISA 2283; with vancomycin; listed as Pyr
Description: as §1

[3] = tested on: MRSA strain USA300-isolate 923; assay: Checkerboard MIC testing of compounds with oxacillin; assay type: cell-based, Staphylococcus aureus; details: for oxacillin MIC: strain 923, 24 h
[4] = tested on: MRSA strain USA300 Pvra-lux; assay type: cell-based, Staphylococcus aureus; details: compound 10 μM + oxacillin 2 μg/mL
Method in brief: (§2)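 Secondary screen: compound at 10 μM plus oxacillin 2 μg/mL, four biological replicates, luminescence read every 15 minutes. RG and RL are OD600 or max LU with compound plus oxacillin over pooled same-plate oxacillin controls; RL <0.8 repressor, >1.2 stimulator, 0.80-1.2 neutral.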

[5] = tested on: vraSR transcription (Pvra::lux); assay type: cell-based, Staphylococcus aureus
Method in brief: as §2

vraR transcription = assay: Tertiary screen: qRT-PCR of vraR in strain 923; assay type: cell-based, Staphylococcus aureus
strain 923 [6] = assay: Oxacillin MIC of strain 923 (assay development)
strain 923 [7] = details: strain 923, CLSI guidelines; cited from earlier work
[8] = tested on: vraSR expression (923 Pvra-lux); assay: Validation of test strain: luminescence as a function of oxacillin concentration; details: strain 923 Pvra-lux, luminescence 2 hours after induction
[9] = oxacillin in combination with compound
[10] = Staphylococcus aureus, compound alone, read-out: MIC compound

Cc1cc(/C=C/c2ccc3cc(N(C)C)ccc3[n+]2C)c(C)n1-c1ccccc1 [Pyrvinium pamoate, 2-[(E)-2-(2,5-Dimethyl-1-phenylpyrrol-3-yl)ethenyl]-N,N,1-trimethylquinolin-1-ium-6-amine]
primary screen category by effect on vraSR (Pvra-lux luminescence) [1]: repressed Pvra::lux in both primary screens | MIC 80 of Ox in presence of compound (diverse MRSA strains; panel of 11 MRSA isolates, clom 3.8 μM, gos 15 μM, pyr 0.5 μM): 32 µg/mL | MIC50 of oxacillin in the presence of compound (diverse MRSA strains; panel of strains): 1 mg/L | MIC80 of oxacillin in the presence of compound (diverse MRSA strains; panel of strains): 32 µg/L | fold decrease in the oxacillin MIC50 (diverse MRSA strains; panel of strains, with compound against oxacillin alone): 16 fold | primary screen category by effect on growth of MRSA strain 923 [2]: strong growth inhibitors on their own | MIC cmpd alone (MRSA strain 8004-01): >4 | MIC cmpd + (MRSA strain 8004-01; compound in combination with oxacillin): >4 mg/L | FICi (MRSA strain 8004-01; oxacillin + compound): 7 | MIC OX (+) (MRSA strain 8004-01; [9]): >256 | FIC Compound (strain 11095): 0.25 | FIC Ox (strain 11095): .0078 | MIC cmpd alone (strain 11095): 16 | fold decrease of the oxacillin MIC (strain 11095): 128 fold | FICi (strain 11095): 0.26 | FICi (strain 11095; listed as Pyr): .26 | MIC OX (+) (strain 11095; [9]): 4 | MIC (VRS1; [10]): 2.24 µg/mL | fold decrease Van MIC (VRS1): 64 fold | MIC (hVISA 2275; [10]): 16 µg/mL | FICi V + compound (hVISA 2275): 0.54 | Van FIC (hVISA 2275): 0.50 | compound FIC (hVISA 2275): 0.04 | fold decrease Van MIC (hVISA 2275): 2 fold | MIC (in combination) compound+ (hVISA 2275; compound MIC with the indicated Van concentration): 0.56 | Synergy category (hVISA 2275; with vancomycin, listed as Pyr): partial (partially potentiated vancomycin (FIC i>0.5 and <1.0)) | MIC (VRS2; [10]): 1.12 µg/mL | Synergy category (VRS2; with vancomycin, listed as Pyr): synergistic (fully potentiated vancomycin (FIC i<0.5)) | Synergy category (VISA 2283): non syn | oxacillin MIC ([3]; compound 0.25 μM): 16 mg/L | oxacillin MIC ([3]; compound 0.5 μM): 4 mg/L | oxacillin MIC ([3]; compound 1 μM): 2 mg/L | change of the MIC of oxacillin with compound concentration ([3]; strain 923, checkerboard): dose dependent decrease | bactericidal effect of oxacillin (MBC, >99.9% killing) ([3]; strain 923, wells with FICi≦0.5 spotted on TSA): increased the bactericidal effect of oxacillin | OD600 category [4]: inhibited (of <0.8 were classified as oxacillin synergists or potentiators) | RG avg (relative growth) ([4]; ratio of OD600 to oxacillin alone, four runs): 0.39 | Effect on vraSR transcription ([5]; compound 10 μM + oxacillin 2 μg/mL): repress (“vraSR repressors” (mean RL of <0.8)) | RL avg (relative luminescence) ([5]; compound 10 μM + oxacillin 2 μg/mL, ratio of LU to oxacillin alone, four runs): 0.31 | classification of lux screen result against qRT-PCR (true/false repressor or stimulator) (vraR transcription; in the presence of oxacillin): true vraSR expression repressors | Effect on vraSR Transcription: With oxacillin (vraR transcription; qRT-PCR of vraR, compound 10 μM + oxacillin 2 μg/mL): vraR inhibitors; also recorded: repress

Cc1onc(-c2ccccc2)c1C(=O)N[C@@H]1C(=O)N2[C@@H]1SC(C)(C)[C@@H]2C(=O)O [oxacillin]
MIC (diverse MRSA strains; Staphylococcus aureus, MRSA, in the absence of compound, range over strains, read-out: MICs of oxacillin for the strains of the panel): 2 to 256 µg/mL | MIC (diverse MRSA strains; Staphylococcus aureus, MRSA, isolate Q2461 (SCCmec VT, ST 59), Ox alone, read-out: MIC Ox): 8 µg/mL | MIC50 (diverse MRSA strains; Staphylococcus aureus, MRSA, panel of strains, absence of compound, read-out: MIC50 of oxacillin): 16 µg/mL | MIC (diverse MRSA strains; Staphylococcus aureus, isolate 923 (SCCmec IV, ST 8), Ox alone, read-out: MIC Ox): 16 µg/mL | MIC (diverse MRSA strains; Staphylococcus aureus, isolate 1176 (SCCmec II, ST 231), Ox alone, read-out: MIC Ox): 32 µg/mL | MIC (diverse MRSA strains; Staphylococcus aureus, isolate 2169 (SCCmec IV, ST 72), Ox alone, read-out: MIC Ox): 16 µg/mL | MIC (diverse MRSA strains; Staphylococcus aureus, isolate 8004-01 (SCCmec III, ST 239), Ox alone, read-out: MIC Ox): 256 µg/mL | MIC (diverse MRSA strains; Staphylococcus aureus, isolate 8010-01 (SCCmec IV, ST 8), Ox alone, read-out: MIC Ox): 8 µg/mL | MIC (diverse MRSA strains; Staphylococcus aureus, isolate 8227-01 (SCCmec IV, ST 87), Ox alone, read-out: MIC Ox): 4 µg/mL | MIC (diverse MRSA strains; Staphylococcus aureus, isolate 11095 (SCCmec II, ST 105), Ox alone, read-out: MIC Ox): 128 µg/mL | MIC (diverse MRSA strains; Staphylococcus aureus, isolate 13113 (SCCmec II, ST 5), Ox alone, read-out: MIC Ox): 8 µg/mL | MIC (diverse MRSA strains; Staphylococcus aureus, isolate 13354 (SCCmec IV, ST 5), Ox alone, read-out: MIC Ox): 8 µg/mL | MIC (diverse MRSA strains; Staphylococcus aureus, isolate 14315 (SCCmec IV, ST 1), Ox alone, read-out: MIC Ox): 16 µg/mL | MIC50 (diverse MRSA strains; Staphylococcus aureus, panel of 11 MRSA isolates, Ox alone, read-out: MIC 50 of Ox): 16 µg/mL | MIC80 (diverse MRSA strains; Staphylococcus aureus, panel of 11 MRSA isolates, Ox alone, read-out: MIC 80 of Ox): 128 µg/mL | MIC (strain 923 [6]; Staphylococcus aureus, 923, read-out: MIC of oxacillin, 923 containing pPvra-lux, 96-well format): 5 µg/mL | MIC (strain 923 [6]; Staphylococcus aureus, 923, read-out: MIC of oxacillin, strain 923, 96-well format): 8 µg/mL | MIC OX (MRSA strain 8004-01; oxacillin alone, listed as OX): 512 and >256 | MIC OX (strain 11095; oxacillin alone): 512 | 24-h oxacillin MIC (strain 923 [7]): 16 to 32 µg/mL | MIC ([3]; Staphylococcus aureus, strain 923, oxacillin alone (Men 0 μM)): 32 µg/mL | average LU of pooled positive controls ([5]; grown in the presence of oxacillin 2 μg/mL, all runs of the secondary assay): 144 (SD+/−16) LU | induction of Pvra::lux ([5]; oxacillin 2 μg/mL against no oxacillin): 2.7 fold | minimum concentration sufficient for maximal vraSR expression [8]: 2 µg/mL
